Holding throughout (type): cell-based, HIV-1
Assay [1] concerns recombinant virus generated from HXB2D site-directed mutant virus, integrase T66I/M154I mutations. The assay is described as follows: Antiviral experiment with recombinant virus from site-directed mutant virus, T66I/M154I. The note with it: versus wild type, MT4-LTR-EGFP cells. On the procedure:
(§1) The integrase encoding sequence was amplified from either wildtype HIV-1 (IIIB) or NL4.3 virus, or HXB2D site-directed mutant viruses containing mutations in integrase (such as T66I, S153Y, M154I, or combinations thereof) (Hazuda et al., Science 2000, 287, 646–650), or patient samples. Starting from RNA, extracted from virus supernatant or plasma using the QIAamp® viral RNA extraction kit (Qiagen), cDNA was synthesized by reverse transcription (Expand™ reverse transcriptase, 30 min at 42° C.) with the primer 3′EGINT10 (SEQ ID NO 11), followed by a nested PCR. […]
(§2) Recombinant virus was produced by co-transfection by electroporation of the SmaI-linearized IN-deletion construct and the integrase amplicon into MT4 cells or MT4 cells equipped with an LTR driven reporter gene construct. Production of recombinant virus was evaluated by scoring the cytopathogenic effect (CPE) that is induced by HIV-infection of MT4 cells or by the LTR-driven reporter signal induced by HIV infection in MT4 reporter cells. […]

Assay [2] relates to recombinant virus generated from HXB2D site-directed mutant virus, integrase T66I/S153Y mutations. The assay is described as follows: Antiviral experiment with recombinant virus from site-directed mutant virus, T66I/S153Y. The note with it: versus wild type, MT4-LTR-EGFP cells. On the procedure: as §1, §2
The subject of assay [3] is recombinant virus generated from HXB2D site-directed mutant virus, integrase T66I mutation. The assay is described as follows: Antiviral experiment with recombinant virus from site-directed mutant virus, T66I. The note with it: versus wild type, MT4-LTR-EGFP cells. On the procedure: as §1, §2
For assay [4], the system named is recombinant virus generated from HXB2D site-directed mutant virus, integrase M154I mutation. The assay is described as follows: Antiviral experiment with recombinant virus from site-directed mutant virus, M154I. The note with it: versus wild type, MT4-LTR-EGFP cells. On the procedure:
as §1, §2

Assay [5] has as its system recombinant virus generated from HXB2D site-directed mutant virus, integrase S153Y. The assay is described as follows: Antiviral experiment with recombinant virus from site-directed mutant virus, S153Y. The following applies: S153Y mutation in integrase; versus wild type; MT4-LTR-EGFP cells. On the procedure: as §1, §2

For `CC(C)Oc1ccc(Cc2ccccc2)cc1C(=O)CC(=O)C(=O)O` [compound 4, 2-(1-methylethyloxy)-, -dioxo-5-(phenylmethyl)-benzenebutanoic acid], the “fold increase in EC50” value in assay [1] is listed as 10 fold; in assay [2], 10 fold; in assay [3], 2 fold; in assay [4], 3 fold; in assay [5], 5 fold.

These data come from patent US7189505B2, “Methods of assessing HIV integrase inhibitor therapy” (Tibotec BVBA, priority 2001, dated 2007).
